Data: patent US20020147175A1, “Synergistic ECTA compositions” (priority 2000, published 2002)

Assays:
Assay type in all cases: cell-based, human
[1] = system: CCD18co normal colon epithelial cells; test: 96-well crystal violet combination cytotoxicity assay with NB1011; conditions: for Average combination index (CI): drug combined with NB1011 at constant molar ratio, CCD18co normal cells, 96-well crystal violet, 72 hour incubation; for Interaction: interaction with NB1011, CCD18co
Method: (§1) Normal human colon epithelial cells (CCD18co) and skin fibroblasts (Det551) were purchased from ATCC (Rockville, Md.). MCF7TDX, human breast carcinoma cells resistant to 2 μM Tomudex were obtained from Dr. Patrick Johnston, Queens University, Belfast. […] The MCF7TDX and the H630R10 cell lines have been previously described in Drake, J. C. et al., 1996 and Copur, S. et al., 1995, respectively.
(§2) All cells were cultured under standard conditions of 37° C., 95% humidified air, 5% CO2 in RPMI 1640 culture medium containing 10% fetal calf serum (Life Technologies) and penicillin/streptomycin/fungizone. MCF7TDX cells were maintained continuously in 2 μM Tomudex, and H630R10 cells were maintained continuously in 10 μM 5-FU. The medium was renewed or the cells were passaged about every three days to maintain optimal growth conditions. Normal cells were passaged a maximum of 15 times to avoid senescence.
(§3) Exponentially rowing cells were transferred at a density of 1.0−5.5×10^3 cells per well to a 96-well tissue culture plate and allowed to attach for 24 hours. Compounds were then applied in duplicate half log serial dilutions. Each compound was tested separately, and mixed together at a single molar ratio approximately equal to the ratio of the individual IC50 values. After an additional 72 hour incubation, cells were washed once with PBS and stained with 0.5% crystal violet in methanol. Plates were washed gently in water to remove unbound stain and allowed to dry overnight. Crystal violet stain bound to the total protein of attached cells was redissolved in Sorenson's buffer (0.025 M sodium citrate, 0.025 M citric acid in 50% ethanol), and absorbance monitored at 535 nm. Sigmoid curves were fit according to the Hill inhibitory Emax model, and IC50 calculated as the average of three or more separate determinations. Where applicable, the combination index for multiple drug effects was calculated according to the median-effect principle (Chou, T. C. and Talalay, P. 1984) using the CalcuSyn software from Biosoft (Ferguson, Mo.). Briefly, the IC50 and the slope parameter (m) for each agent alone were determined from the median effect plot, an x,y plot of log(D) vs log (fa/fu) based on Chou's median effect equation:
(§4) fa/fu=(D/Dm)^m [Equation 1]
(§5) Only experiments with linear correlation coefficients (r)>0.9 were accepted for analysis. A combination index (CI) was then calculated to assess synergism or antagonism according to the following equation which assumes an independent mechanism of drug action (mutual exclusivity):
(§6) CI=(D)1/(Dx)1+(D)2/(Dx)2+(D)1(D)2/(Dx)1(Dx)2 [Equation 2]
(§7) where (D)1 and (D)2 are the concentrations of drug 1 and drug 2 which combined produce x% inhibition, and (Dx)1 and(Dx)2 are the concentrations of each drug which alone produce x% inhibition. CI=1 indicates an additive interaction, CI<1 indicates synergy, and CI>1 indicates antagonism. For each experiment CI's from several different effect levels and concentrations of a constant molar ratio were averaged.
(§8) The 96-well format was chosen for more detailed drug interaction studies. […] To analyze whether any of these drugs would enhance the activity of NB1011 specifically in tumor cells, two normal cell types, Det551 and CCD18co, were included in the assays.

[2] = system: Det551 normal skin fibroblasts; test: as above; conditions: for Average combination index (CI): drug combined with NB1011 at constant molar ratio, Det551 normal cells, 96-well crystal violet, 72 hour incubation; for Interaction: interaction with NB1011, Det551; as to Interaction: key: Syn = synergy; Ant = antagonism; Add = additivity
Method: as §1, §2, §3, §4, §5, §6, §7, §8

H630R10 cells [3] = test: as above; conditions: for Average combination index (CI): drug combined with NB1011 at constant molar ratio, 96-well crystal violet, 72 hour incubation; for Interaction: interaction with NB1011
Method: as §1, §2, §3, §4, §5, §6, §7, §8

MCF7TDX cells [4] = test: as above; conditions: for Average combination index (CI): drug combined with NB1011 at constant molar ratio, 96-well crystal violet, 72 hour incubation; for Interaction: interaction with NB1011
Method: as §1, §2, §3, §4, §5, §6, §7, §8

H630R10 cells [5] = test: 384-well alamarBlue interaction screening assay with NB1011; conditions: drug combined with NB1011, 5-day incubation, average of at least 4 consecutive dose/effect levels
Method: as §1, §2
(§9) 500 cells per well were transferred to a 384-well tissue culture plate (Corning Inc., Corning, N.Y.) and allowed to attach for 24 hours in standard culture conditions. Compounds were then applied in a bidirectional (checker board) pattern (Chou, T. C. and Talalay, P. 1984). Following a 5-day incubation, the redox indicator dye, alamarBlue (AccuMed International, Westlake, Ohio) was added to each well at a 10% v/v ratio, and fluorescence was monitored at 535 excitation, 595 emission. Cytotoxic effect levels and drug interactions were assessed by the combination index method (Chou, T. C. and Talalay, P. 1984 and Bible, K. C. et al. 1997), described briefly below.
as §5, §6, §7
(§10) In general, a combination index of <1 indicates synergy, ˜1 indicates additivity, and >1 indicates antagonism (Pegram, M. D. et al. (1999)).

MCF7TDX cells [6] = test: as above; conditions: drug combined with NB1011, 5-day incubation, average of at least 4 consecutive dose/effect levels
Method: as §1, §2, §9, §5, §6, §7, §10

| SMILES | Average combination index (CI) [1] | Interaction [1] | Average combination index (CI) [2] | Interaction [2] | Average combination index (CI) (H630R10 cells [3]) | Interaction (H630R10 cells [3]) | Average combination index (CI) (MCF7TDX cells [4]) | Interaction (MCF7TDX cells [4]) | Combination Index ± s.e.m. (H630R10 cells [5]) | Combination Index ± s.e.m. (MCF7TDX cells [6]) |
| --- | --- | --- | --- | --- | --- | --- | --- | --- | --- | --- |
| O=[N+]([O-])c1ccc(CSc2ncnc3c2ncn3C2OC(CO)C(O)C2O)cc1 (stereo not shown) [NBMPR, p-nitrobenzylthioinosine] | 3.93 | Ant | 1.43 | Ant | 0.35 | Syn | 0.57 | Syn |  |  |
| CCc1c2c(nc3ccc(OC(=O)N4CCC(N5CCCCC5)CC4)cc13)-c1cc3c(c(=O)n1C2)COC(=O)[C@]3(O)CC [Irinotecan] |  |  |  |  |  |  |  |  | 1.26 ± 0.20 |  |
| CC[C@]1(O)C[C@@H]2CN(CCc3c([nH]c4ccccc34)[C@@](C(=O)OC)(c3cc4c(cc3OC)N(C)[C@H]3[C@@](O)(C(=O)OC)[C@H](OC(C)=O)[C@]5(CC)C=CCN6CC[C@]43[C@@H]65)C2)C1 [Vinblastine] |  | Syn |  | Syn |  | Syn |  | Ant | 0.78 ± 0.32 |  |
| N.N.[Cl][Pt][Cl] [Cisplatin] |  |  |  |  |  |  |  |  |  | 1.51 ± 0.35 |
| O=C1[O][Pt]2([NH][C@@H]3CCCC[C@H]3[NH]2)[O]C1=O [Oxaliplatin] |  |  |  |  |  | Ant |  | Ant |  |  |
| COc1cccc2c1C(=O)c1c(O)c3c(c(O)c1C2=O)C[C@@](O)(C(=O)CO)C[C@@H]3O[C@H]1C[C@H](N)[C@H](O)[C@H](C)O1 [Doxorubicin] |  |  |  |  |  | Ant |  | Ant |  |  |
| CC(=O)O[C@H]1C(=O)[C@@]2(C)[C@H]([C@H](OC(=O)c3ccccc3)[C@]3(O)C[C@H](OC(=O)[C@H](O)[C@@H](NC(=O)c4ccccc4)c4ccccc4)C(C)=C1C3(C)C)[C@]1(OC(C)=O)CO[C@@H]1C[C@@H]2O [Taxol] |  |  |  |  |  |  |  |  | 0.99 ± 0.15 |  |
| OCCN(CCO)c1nc(N2CCCCC2)c2nc(N(CCO)CCO)nc(N3CCCCC3)c2n1 [Dipyridamole, dipyridamole] | 1.30 | Ant | 1.17 | Add | 0.75 | Syn | 0.51 | Syn |  |  |
